Assay results reported in patent publication US12410419B2, “Use of enzyme that cleaves both alpha- and beta- 1,4-glycosidic bonds” (Korea University Research and Business Foundation, priority 2019, dated 2025).

Experiments:
[1] = target: Vibrio sp. strain EJY3 α-L-fucosidase VeFUC (VEJY3_11310, UniProt H2IHW9.1), wild type, SEQ ID NO: 1 (Vibrio sp. EJY3, UniProt A0ACD6BAZ0); test: Kinetic parameters of VeFUC for pNP-α-L-Fuc; assay type: biochemical; conditions: Table 1, Present invention
Description: Genomic DNA of Vibrio sp. strain EJY3 for cloning a gene encoding VeFUC was prepared as follows: Vibrio sp. strain EJY3 was cultured in a minimum medium consisting of 23 g/L Instant Ocean Sea Salt (Aquarium Systems, Mentor, OH, USA), 50 mM Tris-HCl (pH 7.4), 2 g/L glucose, 1 g/L yeast extract and 0.5 g/L ammonium chloride at 303 K and 200 rpm for 18 hours. The genomic DNA was extracted from a culture using the DNeasy Blood & Tissue Kit (Qiagen, Valencia, CA, USA) according to the manufacturer's protocol. A target gene, VEJY3_11310 (UniProt accession no. H2IHW9.1) was amplified by PCR using the following primers. The underlined parts are BamHI and XhoI restriction enzyme sites; […]
(§1) Recombinant E. coli loaded with the pET21a-VeFUC plasmid was grown at 310 K and 200 rpm until an absorbance measured at 600 nm in a culture Luria-Bertani (LB) broth containing 100 mg L^−1 ampicillin reached 0.6. […] The concentrated enzyme solution was analyzed by bicinchoninic acid (BCA) protein analysis (Thermo Fisher Scientific, Waltham, MA) and 12% (w/v) SDS-PAGE gel electrophoresis to determine the concentration, size and purity of the target protein.
(§2) The reaction was terminated by adding 500 μl of 1 M sodium carbonate thereto, and the absorbance of the reaction mixture was quantified by spectrophotometry at 405 nm. […]

[2] = tested on: BT_2970 bacterial fucosidase, B. subtilis thetaiotaomicron; conditions: Table 1; Sakurama 2012; cited from earlier work
[3] = tested on: BT_2970 bacterial fucosidase; conditions: Table 1; Sakurama 2012; cited from earlier work
[4] = tested on: AlfA bacterial fucosidase, Lactobacillus casei; conditions: Table 1; Rodriguez-Diaz 2011; cited from earlier work
[5] = tested on: AlfB bacterial fucosidase, L. casei; set-up: Vmax: unit not given here; conditions: Table 1; Rodriguez-Diaz 2011; cited from earlier work
[6] = tested on: AlfC bacterial fucosidase, L. casei; set-up: Vmax: unit not given here; conditions: Table 1; Rodriguez-Diaz 2011; cited from earlier work
[7] = tested on: aLfuk1 bacterial fucosidase; conditions: Table 1; Benesova 2013; cited from earlier work
[8] = tested on: TM0306 bacterial fucosidase, T. maritima; conditions: Table 1, Sulzenbacher 2004, cited from earlier work
[9] = tested on: TfFuc1 bacterial fucosidase, Tannerella forsythia; conditions: Table 1; Megson 2015; cited from earlier work
[10] = tested on: XCC2888 bacterial fucosidase, Xanthomonas campestris; conditions: Table 1, Dupoiron 2015, cited from earlier work
[11] = tested on: Alf1_Wf bacterial fucosidase, Wenyingzhuangia fucanilytica; conditions: Table 1; Dong 2017; cited from earlier work
[12] = substrate: C[C@@H]1O[C@@H](Oc2ccc([N+](=O)[O-])cc2)[C@@H](O)[C@H](O)[C@@H]1O; test: Kinetic parameters of VeFUC for pNP-α-L-Fuc; assay type: biochemical, Vibrio sp. strain EJY3; conditions: other: text, 313 K, 10 mM sodium acetate buffer (pH 6.0), Lineweaver-Burk plot, 40.0 °C
Description: Genomic DNA of Vibrio sp. strain EJY3 for cloning a gene encoding VeFUC was prepared as follows: Vibrio sp. strain EJY3 was cultured in a minimum medium consisting of 23 g/L Instant Ocean Sea Salt (Aquarium Systems, Mentor, OH, USA), 50 mM Tris-HCl (pH 7.4), 2 g/L glucose, 1 g/L yeast extract and 0.5 g/L ammonium chloride at 303 K and 200 rpm for 18 hours. The genomic DNA was extracted from a culture using the DNeasy Blood & Tissue Kit (Qiagen, Valencia, CA, USA) according to the manufacturer's protocol. A target gene, VEJY3_11310 (UniProt accession no. H2IHW9.1) was amplified by PCR using the following primers. The underlined parts are BamHI and XhoI restriction enzyme sites;
Recombinant proteins were purified using a HisTrap column (GE Healthcare, Piscataway, NJ, USA) by adding sequences encoding 6 histidines to the reverse primer. A PCR product was treated with BamHI and XhoI restriction enzymes and subsequently ligated to a pET-21a plasmid (Novagen, Darmstadt, Germany) to construct a PET21a-VeFUC plasmid.
as §1, §2
In order to measure the kinetic parameters of VeFUC for pNP-α-L-Fuc, enzymatic reactions were performed at different concentrations of pNP-α-L-Fuc in a range of 0.109 to 0.875 mM under the same conditions described above. Vmax, Km and kcat, which are enzyme kinetic parameters of VeFUC were measured from a Lineweaver-Burk plot. […]

C[C@@H]1O[C@@H](Oc2ccc([N+](=O)[O-])cc2)[C@@H](O)[C@H](O)[C@@H]1O [pNP-α-L-Fuc, p-nitrophenyl-α-L-fucopyranoside]
Vmax [1]: 24.8 ± 0.9
Kcat ([1]; in 1/s): 4.81 ± 1.8
Km [2]: 1500 µM
Kcat [3]: 1.3 s⁻¹
Km [4]: 270 µM
Km [5]: 2900 µM
Vmax [5]: 6
Km [6]: 5300 µM
Vmax [6]: 22.2
Km [7]: 440 ± 20 µM
Km [8]: 34 ± 2 µM
Kcat ([8]; in 1/s): 5.4 ± 0.2
Km [9]: 670 ± 200 µM
Vmax [9]: 20.4
Km [10]: 700 ± 100 µM
Kcat ([10]; in 1/s): 6.1 ± 2.0
Kcat [11]: 5.44 s⁻¹
Km [11]: 3300 ± 420 µM
Vmax [11]: 4.75

B1: Vibrio sp. strain EJY3 α-L-fucosidase VeFUC (VEJY3_11310, UniProt H2IHW9.1), wild type, SEQ ID NO: 1 (Vibrio sp. EJY3) (protein)
chain: MTKPTAGELTGTSSQATSQLDNRNAFTGVSKQGLNRWKKNTFGMFIHWGLYCHRDLAGYYQGQYYDIISEWLPHFARIPMRDYKEYASDFNPSEFDADQVTALAKTAGMNYMVVTAKHHDGFAMYHSPSHPFNITDATPFKRDPVAELSQSCRHKDLDFGLYYSHVIDWENENAVSKAPNDWDFNPDQANYQEYWNNKCLPQVNELLEQYGDLCSLWFDMGGFDVQEEADHVRRIGELMALIRKKQPDAVVNSRVTAPECEYQLDWDIKTGHDNYMEPLYIKPYYWEGIATSNDNWGYSRNDNNTKSSKDLINQLCSVVSRGGNFLLNITLDHNGRIPQSLVRLLSEIGQWMQVNQEAVIDTEATPLQTGFNWGVVTHRPATNKLYLHVQRQPEQNVICLHSLNNRIKQVRLLDNQIKGHVSYLQKTHTDTGITASTLNLQLGHNYDRMPLVIELEYDGELDINPIVHQDRLAKVRLDTLNIAHFDPEKLTYRWTFQIQSPGRFALDLVSLETMHHKDPQWVHNGKTGRISCGGQSWEFELNLDKTDTNDAQVPWKNIHSRLGELHFPQAGEYTLEFSELPLAIDQSEKYGQDYINLEYLQLGPRLA
Km [12]: 6340 ± 480 µM
Vmax [12]: 24.8±0.9 U mg^−1 protein
kcat [12]: 4.81 ± 1.8 s⁻¹
